These results are taken from patent publication US4545991A, “Difficidin and derivative antibacterials” (Merck & Co., Inc., priority 1983, dated 1985).

In brackets after ≈: the same amount, converted by molar mass. Some results are limits rather than exact numbers.

One data set relates to Vibrio percolans MB 1272. Description: in vitro agar disc diffusion bioassay of column fractions (Table V). The data set is classed as cell-based. The protocol:
A 0.4 ml sample of 2.1 L spent ethyl acetate fraction from Step A above was evaporated to an oily residue and taken up in 0.7 ml of 7:3 methanol-0.01Mpotassium phosphate pH 7.0. A 0.4 ml aliquot of the solution was chromatographed in the same solvent at 28° C. on a Dupont Zorbax ODS column (4.6 mn ID×25 cm), 10 micron. The flow rate was 1 ml/min. and column effluent was monitored at 275 nm using a Laboratory Data Control Spectra Monitor I ultraviolet detector equipped with a 10 mm pathlength flow cell and a Honeywell Electronik 195 recorder. Eluate was collected in 0.5 ml fractions and assayed by agar disc diffusion against Vibrio percolans MB 1272. Table V summaries bioassay results.
The data in Table V show the presence of two distinct antibacterial substances in spent ethyl acetate. The activity in Fractions 11 and 12 is due to the antibacterial oxydifficidin. The activity in Fractions 61-65 is due to the antibacterial difficidin.
A general note: In agar diffusion tests the substance spreads into inoculated agar from a disc or well.

A further data set deals with C. ramosum. Briefly: MIC, in vitro agar dilution assay, anaerobic bacteria (Table III). The data set is classed as cell-based. As to conditions: 10^6 CFU per spot. In general terms: In agar dilution, organisms are placed on agar that contains the substance at set levels.
A short description of data set [1]: decomposition during lyophilization. The class given is physicochemical. Particulars: lyophilization of (IV) to (V). The procedure: There is evidence that from 10-15% decomposition of oxydifficidin may have occurred during lyophilization of (IV) to (V). Based on the lyophilized weight of (V) and the UV analysis of (IV), A1 cm^1% (275 nm)--438 is calculated.

For data set [2], the system named is Klebsiella pneumoniae MB 4005. Briefly: standard mouse protection test, experimental systemic infection. The data set is classed as in vivo, CD1 female mice. Particulars: × 2 i.p. doses (immediately after infection and 6 hours later), 7 days. The protocol:
The antibacterial efficacy of difficidin and its derivatives was further determined in standard mouse protection tests. An experimental systemic infection was produced in CD1 female mice (Charles River Breeding Laboratories, Wilmington, MA) by the intraperitoneal injection of a suitably diluted broth culture of Klebsiella pneumoniae MB 4005. The test antibacterial compounds and the control drug (streptomycin) were administered parenterally (intraperitoneally) immediately after infection and again 6 hours later. At least 4 fourfold dilutions of each agent were tested. There were 5 mice at each dose level. […] Under the conditions of the test, all infected untreated mice died within 48 hours.
Mice were protected by the administration of the test antibacterial compounds or streptomycin at the median effective doses shown in Table IV below.

Data set [3] has as its system Clostridium perfringens NCCLS control strain. Briefly: microbe, parasite or virus in culture. As to conditions: Clostridium perfringens NCCLS control strain; 10^6 CFU per spot. The data set is classed as cell-based.
Data set [4] concerns Peptostreptococcus anaerobius. Description: MIC, in vitro agar dilution assay, anaerobic bacteria (Table III). The class given is cell-based. Particulars: 10^6 CFU per spot.
The subject of another data set is Ent. aerogenes. Description: MIC, in vitro agar dilution assay, aerobic bacteria (Table II). As to conditions: Ent. aerogenes; 10^6 CFU per spot. The data set is classed as cell-based.
A further data set deals with aerobic microorganisms. Briefly: antibacterial activity against aerobic microorganisms, summary. The data set is classed as cell-based. As to conditions: such as Pseudomonas aeruginosa and Staphyloccoccus aureus.
Another data set can be described thus: pH of aqueous solution. The class given is physicochemical.
A short description of the next data set: solubility. The data set is classed as physicochemical. Particulars: water, lower alcohols such as methanol and ethanol.
The subject of data set [5] is Bifidobacterium dentium Fox^r. Description: MIC, in vitro agar dilution assay, anaerobic bacteria (Table III). Particulars: Bifidobacterium dentium Fox^r; 10^6 CFU per spot. The data set is classed as cell-based.

As for `C=CC=C(C)CCC1CC=CC=C(C)C(OP(=O)(O)O)CCCC=CC=CC=CC(O)C(C)C(=C)CC(=O)O1` (centres unmarked) [Oxydifficidin, oxydifficidin], the “Zone Diameter” value with Vibrio percolans MB 1272 (Fraction 11, 40 μl on 3/8" disc) was 23 mm; in the data set with Vibrio percolans MB 1272 (Fraction 12, 40 μl on 3/8" disc), 19 mm. Also, the MIC against C. ramosum was 2 µg/mL (≈ 3.57 µM); in [3], above 128 µg/mL; in data set [4], 0.06 µg/mL (≈ 0.107 µM); in the data set with Ent. aerogenes, 32.0 µg/mL (≈ 57.1 µM). Moreover, the decomposition during lyophilization in data set [1] was 10-15%. Besides, the median effective dose (ED50) in data set [2] (Test No. 1) was 12.25 mg/kg; in data set [2] (Test No. 2), 14.85 mg/kg.
Take `C=CC=C(C)CCC1CC=CC=C(C)C(OP(=O)(O)O)CCCC=CC=CC=CCC(C)C(=C)CC(=O)O1` (centres unmarked) [Difficidin, difficidin]: the “Zone Diameter” value with Vibrio percolans MB 1272 (Fraction 61, 40 μl on 3/8" disc) turned out to be 12 mm; in the data set with Vibrio percolans MB 1272 (Fraction 62, 40 μl on 3/8" disc), 12 mm; with Vibrio percolans MB 1272 (Fraction 63, 40 μl on 3/8" disc), 12 mm; in the data set on Vibrio percolans MB 1272 (Fraction 64, 40 μl on 3/8" disc) it was 12 mm; with Vibrio percolans MB 1272 (Fraction 65, 40 μl on 3/8" disc), 12 mm. Besides, the MIC is 2 µg/mL (≈ 3.67 µM) against C. ramosum; above 128 µg/mL in [3]; 0.06 µg/mL (≈ 0.11 µM) in data set [4]; 32 µg/mL (≈ 58.8 µM) in [5]; 8.0 µg/mL (≈ 14.7 µM) in the data set on Ent. aerogenes. Also, the “potency against aerobic microorganisms relative to oxydifficidin” value in the data set on aerobic microorganisms is recorded as “more potent than oxydifficidin”. The same molecule had a median effective dose (ED50) in data set [2] (Test No. 3) of 1.56 mg/kg. Also, the “pH of 0.1% by weight aqueous solution” value in the data set “pH of aqueous solution” is recorded as 6.9. For the same molecule, the solubility result in the data set “solubility” was “soluble in water, lower alcohols such as methanol and ethanol”.

Usually ED50 stands for the dose at which the effect has come halfway, by size or by number of responders. Low readings indicate greater potency, high ones weaker potency.
